pIC50: −log10 of the molar value. Read-outs that look alike come from different tables or passages of the source. Square brackets hold non-standard residues; d marks the D form. Peptide text beside a SMILES is read from it. d(hArg(Et2)) = CCN=C(NCC)NCCCC[C@@H](N)C(=O)O; hArg(Et2) = CCN=C(NCC)NCCCC[C@H](N)C(=O)O; dPhe(4-Cl) = N[C@H](Cc1ccc(Cl)cc1)C(=O)O; d2Nal = N[C@H](Cc1ccc2ccccc2c1)C(=O)O; dCit = NC(=O)NCCC[C@@H](N)C(=O)O; d3Pal = N[C@H](Cc1cccnc1)C(=O)O
How the values were obtained:
Lhb gene expression = Lhb gene expression by qRT-PCR in LβT2 cells; type: cell-based, mouse; conditions: 1 µM GnRH + 1 µM antagonist, 24 h, n = 4
Method: LβT2 cells were seeded in 24-well plates (2 × 10^5 cells/well) and cultured for 24 h in DMEM supplemented with 10% Charcoal Stripped FBS, 4.5 g/L glucose, 100 IU/mL penicillin, 0.1 mg/mL streptomycin, and 1 mM glutamine (all from Sigma-Aldrich) before treatments. […] Samples were lysed for RNA extraction using TRIzolTM Reagent (Invitrogen) and equal amounts of total RNA were used for cDNA synthesis performed using the iScript reverse transcriptase (BioRad), as previously described. qRT-PCR was carried out in triplicates on the CFX96TM Real-Time PCR Detection System (BioRad) using the following primers pairs: [NT] for mouse Lhb; [NT] for mouse Gapdh. Primer sequences were drawn using the Mus musculus Lhb (NCBI Reference Sequence: NM_008497.2) and Gapdh (NM_008084.3) mRNAs as templates. Gene expression of Lhb was normalized to mouse Gapdh gene expression using the 2^-ΔΔCt method.

GnRH receptor (GnRHR) = biological target: T1, GnRH receptor (GnRHR) (Homo sapiens, UniProt P30968); assay: BRET (CAMYEL) measurement of cAMP accumulation in HEK293/GnRHR cells; type: cell-based; set-up: HA (hemagglutinin); expressed in transfected cells; host or cells: HEK293 (transient co-transfection with BRET biosensor)
T1 sequence (P30968 1-328): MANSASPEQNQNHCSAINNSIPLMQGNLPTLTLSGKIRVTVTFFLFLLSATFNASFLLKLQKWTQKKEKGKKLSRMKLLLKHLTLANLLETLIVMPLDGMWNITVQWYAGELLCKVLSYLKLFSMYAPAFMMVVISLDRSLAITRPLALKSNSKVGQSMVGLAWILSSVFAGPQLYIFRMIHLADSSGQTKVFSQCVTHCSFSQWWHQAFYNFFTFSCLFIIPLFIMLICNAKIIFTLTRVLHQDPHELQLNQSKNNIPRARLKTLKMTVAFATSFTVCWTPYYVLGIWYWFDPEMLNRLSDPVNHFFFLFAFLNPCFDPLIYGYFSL
Method: Different transfection protocols were followed, depending on the endpoint to be measured. For BRET experiments, 3 × 10^4 cells were transiently transfected using vectors expressing the cAMP-CAMYEL or the aequorin-Ca^2+ BRET biosensor-encoding cDNA [59], as appropriate, together with the GnRHR-HA-encoding vector. Transfections were performed in a 96-well plate using the Metafectene PRO reagent (Biontex, München, Germany), as previously described. […]
cAMP accumulation was measured in cells transiently expressing both the BRET-based cAMP biosensor CAMYEL [64] and GnRHR. […] BRET signals were detected at 475 and 535 nm wavelengths upon the addition of 5 µM Coelenterazine H (NanoLight Technologies). […]
BRET experiments were performed using a CLARIOstar plate reader equipped by a monocromator (BMG Labtech, Ortenberg, Germany), as previously described.
Data were plotted on graphs as means ± standard error of means (SEM). […] Data distributions were analyzed by D’Agostino and Pearson normality tests and inhibition of intracellular Ca^2+ increase by different concentrations of antagonist were compared using two-way analysis of variance (ANOVA), followed by Bonferroni post-test or Kruskal-Wallis and proper post-test. cAMP accumulation was represented as acceptor:donor emission ratio (induced BRET changes) after basal subtraction (untreated cells). […]

| SMILES | effect on GnRH-induced Lhb gene expression (Lhb gene expression) | pIC50 (GnRH receptor (GnRHR)) | pIC50 (GnRH receptor (GnRHR); read-out: IC50 of inhibition of GnRH-induced cAMP accumulation) |
| --- | --- | --- | --- |
| CC(=O)N[C@H](Cc1ccc2ccccc2c1)C(=O)N[C@H](Cc1ccc(Cl)cc1)C(=O)N[C@H](Cc1cccnc1)C(=O)N[C@@H](CO)C(=O)N[C@@H](Cc1ccc(O)cc1)C(=O)N[C@H](CCCNC(N)=O)C(=O)N[C@@H](CC(C)C)C(=O)N[C@@H](CCCNC(=N)N)C(=O)N1CCC[C@H]1C(=O)N[C@H](C)C(N)=O [Cetrorelix] (Ac-[d2Nal][dPhe(4-Cl)][d3Pal]SY[dCit]LRP[dA]-NH2) | inhibited | 9.08 | – |
| CCN=C(NCC)NCCCC[C@H](NC(=O)[C@H](CC(C)C)NC(=O)[C@@H](CCCCNC(=NCC)NCC)NC(=O)[C@H](Cc1ccc(O)cc1)NC(=O)[C@H](CO)NC(=O)[C@@H](Cc1cccnc1)NC(=O)[C@@H](Cc1ccc(Cl)cc1)NC(=O)[C@@H](Cc1ccc2ccccc2c1)NC(C)=O)C(=O)N1CCC[C@H]1C(=O)N[C@H](C)C(N)=O [Ganirelix] (Ac-[d2Nal][dPhe(4-Cl)][d3Pal]SY[d(hArg(Et2))]L[hArg(Et2)]P[dA]-NH2; N-terminus and C-terminus assumed) | inhibited | – | 9.21 |

From article PMC6888270 (International Journal of Molecular Sciences, 2019)
